Test results published in patent US20060069132A1, “Azolecarboxamide herbicides” (priority 2004, published 2006).

How the values were obtained:
Surinam grass = assay: Test B pre-/postemergence herbicide test; type: in vivo, Urochloa decumbens; conditions: for Plant response rating, Surinam Grass: preemergence; for Surinam Grass plant response rating: postemergence, visual rating, scale 0 (no effect) to 100 (complete control)
How it was run: (§1)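 Formulation: non-phytotoxic solvent mix with surfactant. Timing: preemergence on seed and postemergence on 2–18 cm plants, applied concurrently. Readout after 13–15 d greenhouse: visual 0–100 control rating against controls.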

cocklebur = assay: Test C pre-/postemergence herbicide test; type: in vivo, Xanthium strumarium; conditions: for Cocklebur plant response rating: 500 g ai/ha
How it was run: (§2)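 Pre/post spray; non-phytotoxic solvent + surfactant. Post-timing 1–4 leaves, 2–18 cm. Read-out: visual % control vs untreated, day 12–14, greenhouse.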

morningglory = assay: Test C pre-/postemergence herbicide test; type: in vivo, Ipomoea coccinea; design: key to Plant response rating, Morningglory: 0 = no effect, 100 = complete control; conditions: for Morningglory plant response rating: 500 g ai/ha
How it was run: as §2

barnyardgrass = assay: Test C flooded paddy test; type: in vivo, Echinochloa crus-galli
How it was run: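 Scoring by eye, 12–14 days post-treatment, greenhouse-held plants vs. controls; 0 no effect, 100 complete control. Sprayed at 1–4 leaves (2–18 cm); paddy barnyardgrass at 2 leaves, flooded.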

large crabgrass [1] = assay: Test B pre-/postemergence herbicide test; type: in vivo, Digitaria sanguinalis; conditions: for Plant response rating, Crabgrass, Large: preemergence; for Crabgrass, Large plant response rating: postemergence, visual rating, scale 0 (no effect) to 100 (complete control)
How it was run: as §1

johnsongrass = assay: Test C pre-/postemergence herbicide test; type: in vivo, Sorghum halepense; conditions: for Johnsongrass plant response rating: 500 g ai/ha
How it was run: as §2

yellow nutsedge = assay: Test C pre-/postemergence herbicide test; type: in vivo, Cyperus esculentus; conditions: for Nutsedge, Yellow plant response rating: 500 g ai/ha
How it was run: as §2

rice = assay: Test B pre-/postemergence herbicide test; type: in vivo, Oryza sativa; conditions: preemergence
How it was run: as §1

eastern black nightshade = assay: Test C pre-/postemergence herbicide test; type: in vivo, Solanum ptycanthum
How it was run: as §2

large crabgrass [2] = assay: Test C pre-/postemergence herbicide test; type: in vivo, Digitaria sanguinalis; conditions: for Crabgrass, Large plant response rating: 500 g ai/ha
How it was run: as §2

[3] = 500 g ai/ha, visual rating 0-100, 0 no effect, 100 complete control
[4] = 125 g ai/ha, 0 to 100 scale, 0 is no effect, 100 is complete control
[5] = Postemergence, 250 g ai/ha, scale 0 to 100, 0 no effect, 100 complete control
[6] = Preemergence, scale 0 to 100, 0 no effect, 100 complete control
[7] = postemergence, 125 g ai/ha, scale 0 to 100
[8] = postemergence, 62 g ai/ha, scale 0 to 100
[9] = 125 g ai/ha, scale 0 (no effect) to 100 (complete control), visual, 12 to 14 days, preemergence

Structure (SMILES): C#CCNC(=O)c1cccc(NC(=O)c2cc(C(C)(C)C)nn2CC)n1 [Compound 147]
- Plant response rating, Surinam Grass (Surinam grass; [3]): 80
- Surinam Grass plant response rating (Surinam grass; 125 g ai/ha): 20
- Surinam Grass plant response rating (Surinam grass; 500 g ai/ha): 30
- Plant response rating, Surinam Grass (Surinam grass; [4]): 20
- Plant response rating (0 = no effect, 100 = complete control), Cocklebur (cocklebur; 62 g ai/ha, preemergence): 0
- Cocklebur plant response rating (cocklebur; Postemergence, scale 0 to 100): 20
- Plant response rating, Cocklebur (cocklebur; [5]): 5
- Cocklebur plant response rating (cocklebur; [6]): 0
- Plant response rating, Cocklebur (cocklebur; [7]): 5
- Plant response rating, Cocklebur (cocklebur; [8]): 0
- Plant response rating (0 = no effect, 100 = complete control), Morningglory (morningglory; 62 g ai/ha, preemergence): 0
- Plant response rating, Morningglory (morningglory; [9]): 0
- Morningglory plant response rating (morningglory; Postemergence, scale 0 to 100): 0
- Plant response rating, Morningglory (morningglory; [5]): 0
- Morningglory plant response rating (morningglory; [6]): 0
- Plant response rating, Morningglory (morningglory; [7]): 0
- Plant response rating, Morningglory (morningglory; [8]): 0
- Barnyardgrass plant response rating (barnyardgrass; 16 g ai/ha, scale 0 to 100): 0
- Barnyardgrass plant response rating (barnyardgrass; 31 g ai/ha, scale 0 to 100): 0
- Barnyardgrass plant response rating (barnyardgrass; 62 g ai/ha, scale 0 to 100 (0 no effect, 100 complete control)): 0
- Barnyardgrass plant response rating (barnyardgrass; 125 g ai/ha, scale of 0 to 100, 0 is no effect, 100 is complete control): 0
- Plant response rating, Crabgrass, Large (large crabgrass [1]; [3]): 100
- Crabgrass, Large plant response rating (large crabgrass [1]; 125 g ai/ha): 20
- Crabgrass, Large plant response rating (large crabgrass [1]; 500 g ai/ha): 70
- Plant response rating, Crabgrass, Large (large crabgrass [1]; [4]): 90
- Plant response rating (0 = no effect, 100 = complete control), Johnsongrass (johnsongrass; 62 g ai/ha, preemergence): 0
- Plant response rating, Johnsongrass (johnsongrass; [9]): 40
- Johnsongrass plant response rating (johnsongrass; Postemergence, scale 0 to 100): 10
- Plant response rating, Johnsongrass (johnsongrass; [5]): 10
- Johnsongrass plant response rating (johnsongrass; [6]): 80
- Plant response rating, Johnsongrass (johnsongrass; [8]): 0
- Plant response rating (0 = no effect, 100 = complete control), Nutsedge, Yellow (yellow nutsedge; 62 g ai/ha, preemergence): 0
- Plant response rating, Nutsedge, Yellow (yellow nutsedge; [9]): 0
- Nutsedge, Yellow plant response rating (yellow nutsedge; Postemergence, scale 0 to 100): 0
- Plant response rating, Nutsedge, Yellow (yellow nutsedge; [5]): 0
- Nutsedge, Yellow plant response rating (yellow nutsedge; [6]): 0
- Plant response rating, Nutsedge, Yellow (yellow nutsedge; [7]): 0
- Plant response rating, Nutsedge, Yellow (yellow nutsedge; [8]): 0
- Plant response rating, Rice (rice; [3]): 10
- Plant response rating, Rice (rice; [4]): 0
- Plant response rating (0 = no effect, 100 = complete control), Nightshade (eastern black nightshade; 62 g ai/ha, preemergence): 40
- Plant response rating, Nightshade (eastern black nightshade; [9]): 70
- Nightshade plant response rating (eastern black nightshade; Preemergence, 500 g ai/ha, scale 0 to 100, 0 no effect, 100 complete control): 100
- Plant response rating (0 = no effect, 100 = complete control), Crabgrass, Large (large crabgrass [2]; 62 g ai/ha, preemergence): 0
- Plant response rating, Crabgrass, Large (large crabgrass [2]; [9]): 50
- Plant response rating, Crabgrass, Large (large crabgrass [2]; 250 g ai/ha, scale 0 to 100 (0 no effect, 100 complete control), visual, 12 to 14 days, preemergence): 90
- Crabgrass, Large plant response rating (large crabgrass [2]; Postemergence, scale 0 to 100): 60
- Plant response rating, Crabgrass, Large (large crabgrass [2]; [5]): 10
- Crabgrass, Large plant response rating (large crabgrass [2]; [6]): 100
- Plant response rating, Crabgrass, Large (large crabgrass [2]; [7]): 0
- Plant response rating, Crabgrass, Large (large crabgrass [2]; [8]): 0
